{
  "source": "patent US6492350B2",
  "about": "“Chitin oligosaccharides and/or chitosan oligosaccharides for preventing or treating common cold or treating pain” (JDC (Hawaii) Inc., priority 2000, dated 2002)",
  "key": {"[1]": {"conditions": "in vivo, po; cited from earlier work"}, "[2]": {"assay": "Clinical study of CCOS analgesia in volunteers with painful conditions (short-form McGill Pain Questionnaire)", "format": "in vivo, human", "conditions": "patient", "experimental": "This modification is a hybrid form utilizing both a Visual Analogue Scale rating pain from 0 (no pain) to 5 (excruciating) as well as a pain questionnaire rating the pain from 0 (no pain) to 3 (severe) along with the following descriptions:\nTo test the effectiveness of chitin chitosan oligosaccharide (CCOS) in providing satisfactory analgesia in both nociceptive and neuropathic pain, a clinical study was conducted with volunteers suffering from a variety of rather common painful conditions (see Table 11). Pain can be an extremely subjective phenomena; there is no laboratory or radiological test to measure its severity or indeed even its presence as described elsewhere p. 8). […] “There is a whole literature of validated, subjective tools that are absolutely reliable” (Melvin C. Gitlin, MD Professor of Anesthesiology, Tulane University School of Medicine and Director of the Pain Management Center at the Tulane University Hospital Clinic) The conditions of all of the volunteers in this study have been documented by physicians, in some cases more than one, and their pain substantiated. […] Our methods, utilizing human subjects is equally valid and acceptable (36). (see Modified McGill Pain form used as the basis to evaluate pain)."}},
  "data": [
    {"compound": "Chitin", "values": [
      {"measurement": "absorbed orally", "setting": "[1]", "value": "20-40%"}
    ]},
    {"compound": "CC(=O)Oc1ccccc1C(=O)O", "note": "[ASA]", "values": [
      {"measurement": "Degree of Pain Reduction", "setting": "[2]; acute pharangitis, nociceptive (inflammatory), CCOS 150 mg STAT then 100 mg PRN", "value": "no significant improvement"}
    ]},
    {"compound": "CC(=O)Nc1ccc(O)cc1", "note": "[Tylenol, Acetaminophen]", "values": [
      {"measurement": "Degree of Pain Reduction", "setting": "[2]; low back pain secondary to strain, nociceptive, CCOS 400 mg STAT then 300 mg QID", "value": "little or no effect"}
    ]}
  ]
}
